Measured values: article PMC11237012, “Synthesis and preliminary evaluation of novel PET probes for GSK-3 imaging” (Scientific Reports, 2024)

Experiment: Ex vivo biodistribution
Format: in vivo, wild-type FVB/NJ mice
Experimental: To further understand the pharmacokinetics of [^18F]2, ex vivo biodistribution was performed with different groups of mice with and without co-administration of 2. Animals were sacrificed at 5 min, 10 min and 120 min post-injection of [^18F]2. Vital organs and tissues were collected and uptake of the [^18F]2 was measured as SUV after counting the radioactivity in each harvested tissue. […] Additionally, observed higher uptake of [^18F]2 in pancreas could potentially be extended to beta cell mass imaging as a separate study. […] Therefore, it would be valuable to evaluate PET [^18F]2 in pathological conditions to finally evaluate its selectivity, binding affinity, and retention in vivo in the presence and absence of self-blocking as a future study.
Uptake of PET probe [^18F]2 (1.40 ± 0.61 MBq) was assessed with and without co-administration of 2 in 10–13-week-old wild-type FVB/NJ mice (The Jackson Laboratory, Bar Harbor, ME) after tail vein injection followed by PET imaging at 5 min, 10 min, 15 min, 20 min, 25 min, 30 min, 40 min, 50 min, 60 min and 120 min post injection. Additionally, ex vivo biodistribution was performed at 5 min, 10 min and 120 min post tail vein injection. To prepare [^18F]2 formulation for injection, 0.76 ± 0.48 µg (2.01 ± 1.27 nmol) of [^18F]2 was formulated in 10% ethanol/ 90% isotonic saline. For the blocking experiment, 20.21 ± 1.63 µg (53.75 ± 4.33 nmol) of 2 in DMSO was added to [^18F]2 (Am of 87.27 ± 77.26 (n = 13) GBq/µmole, having 0.46 ± 0.31 µg or 1.23 ± 0.83 nmol of nonradioactive 2 in it) in the final formulation volume of ~ 100 µL. This study had 12 wild type FVB/NJ male mice with body weight 31.8 ± 2.7 g and 10 wild type FVB/NJ female mice with body weight 27.0 ± 3.6 g at the time of imaging. All the animals were anesthetized for tail vein injection and PET imaging using an induction dose of 3% isoflurane and a maintenance dose of 2–3% isoflurane, which was administered via isoflurane vaporizer. All anesthetized animals were kept warm during imaging using a heat supported imaging chamber. For ex vivo biodistribution studies, animals were sacrificed at 5 min, 10 min and 120 min post-injection by cervical dislocation and tissues were harvested for gamma counting. For PET imaging studies, each animal underwent a 60 min dynamic PET scan (Framing Sequence: 1 × 10 s, 4 × 15 s, 8 × 30 s, 5 × 60 s, 4 × 300 s, 3 × 600 s) immediately post injection followed by 10 min static PET scan at 120 min post-injection on small animal micro-PET/X-ray system, Genesys 4 (Sofie BioSystems, Dulles, VA, USA). The PET images were reconstructed using Genesys 4 imaging software installed on the imaging system. The obtained PET images were visualized and analyzed using image analysis software, “Amide's a medical image data examiner-AMIDE”[53]. PET images were normalized to the standardized uptake value (SUV) where; SUV=ConcentrationofdoseintissueμCi/g×Weightoftheanimal(g)/Injecteddose(μCi).

## O=C(Nc1cnccc1-c1ccc([18F])cc1)c1ccnc(NC(=O)C2CC2)c1 [[^18F]2]
Adipose, 5 min post-injection, [^18F]2 + 20 µg of 2
  SUV, Average ± SD: 0.33 ± 0.05
Adipose, 5 min post-injection, [^18F]2 alone
  SUV, Average ± SD: 0.29 ± 0.09
Adipose, 10 min post-injection, [^18F]2 + 20 µg of 2
  SUV, Average ± SD: 0.38 ± 0.05
Adipose, 10 min post-injection, [^18F]2 alone
  SUV, Average ± SD: 0.24 ± 0.07
Adipose, 120 min post-injection, [^18F]2 + 20 µg of 2
  SUV, Average ± SD: 0.25 ± 0.05
Adipose, 120 min post-injection, [^18F]2 alone
  SUV, Average ± SD: 0.14 ± 0.04
Bladder, 5 min post-injection, [^18F]2 + 20 µg of 2
  SUV, Average ± SD: 0.71 ± 0.09
Bladder, 5 min post-injection, [^18F]2 alone
  SUV, Average ± SD: 0.40 ± 0.12
Bladder, 10 min post-injection, [^18F]2 + 20 µg of 2
  SUV, Average ± SD: 0.84 ± 0.13
Bladder, 10 min post-injection, [^18F]2 alone
  SUV, Average ± SD: 0.48 ± 0.08
Bladder, 120 min post-injection, [^18F]2 + 20 µg of 2
  SUV, Average ± SD: 0.73 ± 0.54
Bladder, 120 min post-injection, [^18F]2 alone
  SUV, Average ± SD: 1.58 ± 1.90
Blood, 5 min post-injection, [^18F]2 + 20 µg of 2
  SUV, Average ± SD: 0.93 ± 0.14
Blood, 5 min post-injection, [^18F]2 alone
  SUV, Average ± SD: 0.38 ± 0.18
Blood, 10 min post-injection, [^18F]2 + 20 µg of 2
  SUV, Average ± SD: 0.79 ± 0.12
Blood, 10 min post-injection, [^18F]2 alone
  SUV, Average ± SD: 0.34 ± 0.02
Blood, 120 min post-injection, [^18F]2 + 20 µg of 2
  SUV, Average ± SD: 0.43 ± 0.07
Blood, 120 min post-injection, [^18F]2 alone
  SUV, Average ± SD: 0.15 ± 0.07
Bone, 5 min post-injection, [^18F]2 + 20 µg of 2
  SUV, Average ± SD: 0.48 ± 0.02
Bone, 5 min post-injection, [^18F]2 alone
  SUV, Average ± SD: 0.30 ± 0.14
Bone, 10 min post-injection, [^18F]2 + 20 µg of 2
  SUV, Average ± SD: 0.50 ± 0.03
Bone, 10 min post-injection, [^18F]2 alone
  SUV, Average ± SD: 0.29 ± 0.04
Bone, 120 min post-injection, [^18F]2 + 20 µg of 2
  SUV, Average ± SD: 1.22 ± 0.31
Bone, 120 min post-injection, [^18F]2 alone
  SUV, Average ± SD: 1.08 ± 0.33
CN (caudate nucleus), 5 min post-injection, [^18F]2 + 20 µg of 2
  SUV, Average ± SD: 0.65 ± 0.04
CN (caudate nucleus), 5 min post-injection, [^18F]2 alone
  SUV, Average ± SD: 0.87 ± 0.48
CN (caudate nucleus), 10 min post-injection, [^18F]2 + 20 µg of 2
  SUV, Average ± SD: 0.45 ± 0.05
CN (caudate nucleus), 10 min post-injection, [^18F]2 alone
  SUV, Average ± SD: 0.34 ± 0.07
CN (caudate nucleus), 120 min post-injection, [^18F]2 + 20 µg of 2
  SUV, Average ± SD: 0.19 ± 0.03
CN (caudate nucleus), 120 min post-injection, [^18F]2 alone
  SUV, Average ± SD: 0.06 ± 0.02
Heart, 5 min post-injection, [^18F]2 + 20 µg of 2
  SUV, Average ± SD: 1.38 ± 0.11
Heart, 5 min post-injection, [^18F]2 alone
  SUV, Average ± SD: 0.69 ± 0.36
Heart, 10 min post-injection, [^18F]2 + 20 µg of 2
  SUV, Average ± SD: 1.14 ± 0.16
Heart, 10 min post-injection, [^18F]2 alone
  SUV, Average ± SD: 0.45 ± 0.02
Heart, 120 min post-injection, [^18F]2 + 20 µg of 2
  SUV, Average ± SD: 0.48 ± 0.12
Heart, 120 min post-injection, [^18F]2 alone
  SUV, Average ± SD: 0.16 ± 0.08
Left kidney, 5 min post-injection, [^18F]2 + 20 µg of 2
  SUV, Average ± SD: 2.47 ± 0.30
Left kidney, 5 min post-injection, [^18F]2 alone
  SUV, Average ± SD: 1.37 ± 0.69
Left kidney, 10 min post-injection, [^18F]2 + 20 µg of 2
  SUV, Average ± SD: 2.27 ± 0.32
Left kidney, 10 min post-injection, [^18F]2 alone
  SUV, Average ± SD: 1.01 ± 0.16
Left kidney, 120 min post-injection, [^18F]2 + 20 µg of 2
  SUV, Average ± SD: 2.18 ± 0.51
Left kidney, 120 min post-injection, [^18F]2 alone
  SUV, Average ± SD: 0.54 ± 0.06
Lung, 5 min post-injection, [^18F]2 + 20 µg of 2
  SUV, Average ± SD: 1.17 ± 0.15
Lung, 5 min post-injection, [^18F]2 alone
  SUV, Average ± SD: 0.65 ± 0.35
Lung, 10 min post-injection, [^18F]2 + 20 µg of 2
  SUV, Average ± SD: 1.08 ± 0.15
Lung, 10 min post-injection, [^18F]2 alone
  SUV, Average ± SD: 0.48 ± 0.03
Lung, 120 min post-injection, [^18F]2 + 20 µg of 2
  SUV, Average ± SD: 0.52 ± 0.09
Lung, 120 min post-injection, [^18F]2 alone
  SUV, Average ± SD: 0.18 ± 0.07
Muscle, 5 min post-injection, [^18F]2 + 20 µg of 2
  SUV, Average ± SD: 0.90 ± 0.17
Muscle, 5 min post-injection, [^18F]2 alone
  SUV, Average ± SD: 0.47 ± 0.23
Muscle, 10 min post-injection, [^18F]2 + 20 µg of 2
  SUV, Average ± SD: 0.72 ± 0.09
Muscle, 10 min post-injection, [^18F]2 alone
  SUV, Average ± SD: 0.43 ± 0.03
Muscle, 120 min post-injection, [^18F]2 + 20 µg of 2
  SUV, Average ± SD: 0.32 ± 0.06
Muscle, 120 min post-injection, [^18F]2 alone
  SUV, Average ± SD: 0.11 ± 0.04
Pancreas, 5 min post-injection, [^18F]2 + 20 µg of 2
  SUV, Average ± SD: 1.83 ± 0.16
Pancreas, 5 min post-injection, [^18F]2 alone
  SUV, Average ± SD: 1.27 ± 0.56
Pancreas, 10 min post-injection, [^18F]2 + 20 µg of 2
  SUV, Average ± SD: 1.53 ± 0.15
Pancreas, 10 min post-injection, [^18F]2 alone
  SUV, Average ± SD: 0.85 ± 0.23
Pancreas, 120 min post-injection, [^18F]2 + 20 µg of 2
  SUV, Average ± SD: 0.57 ± 0.15
Pancreas, 120 min post-injection, [^18F]2 alone
  SUV, Average ± SD: 0.22 ± 0.09
Right kidney, 5 min post-injection, [^18F]2 + 20 µg of 2
  SUV, Average ± SD: 2.46 ± 0.18
Right kidney, 5 min post-injection, [^18F]2 alone
  SUV, Average ± SD: 1.34 ± 0.69
Right kidney, 10 min post-injection, [^18F]2 + 20 µg of 2
  SUV, Average ± SD: 2.30 ± 0.35
Right kidney, 10 min post-injection, [^18F]2 alone
  SUV, Average ± SD: 0.97 ± 0.12
Right kidney, 120 min post-injection, [^18F]2 + 20 µg of 2
  SUV, Average ± SD: 2.30 ± 0.81
Right kidney, 120 min post-injection, [^18F]2 alone
  SUV, Average ± SD: 0.48 ± 0.15
Skin, 5 min post-injection, [^18F]2 + 20 µg of 2
  SUV, Average ± SD: 0.66 ± 0.16
Skin, 5 min post-injection, [^18F]2 alone
  SUV, Average ± SD: 0.46 ± 0.17
Skin, 10 min post-injection, [^18F]2 + 20 µg of 2
  SUV, Average ± SD: 0.66 ± 0.10
Skin, 10 min post-injection, [^18F]2 alone
  SUV, Average ± SD: 0.52 ± 0.16
Skin, 120 min post-injection, [^18F]2 + 20 µg of 2
  SUV, Average ± SD: 0.71 ± 0.66
Skin, 120 min post-injection, [^18F]2 alone
  SUV, Average ± SD: 0.10 ± 0.04
Spleen, 5 min post-injection, [^18F]2 + 20 µg of 2
  SUV, Average ± SD: 1.00 ± 0.05
Spleen, 5 min post-injection, [^18F]2 alone
  SUV, Average ± SD: 0.74 ± 0.27
Spleen, 10 min post-injection, [^18F]2 + 20 µg of 2
  SUV, Average ± SD: 1.14 ± 0.50
Spleen, 10 min post-injection, [^18F]2 alone
  SUV, Average ± SD: 0.55 ± 0.20
Spleen, 120 min post-injection, [^18F]2 + 20 µg of 2
  SUV, Average ± SD: 0.44 ± 0.11
Spleen, 120 min post-injection, [^18F]2 alone
  SUV, Average ± SD: 0.15 ± 0.07
Stomach, 5 min post-injection, [^18F]2 + 20 µg of 2
  SUV, Average ± SD: 0.86 ± 0.32
Stomach, 5 min post-injection, [^18F]2 alone
  SUV, Average ± SD: 0.80 ± 0.24
Stomach, 10 min post-injection, [^18F]2 + 20 µg of 2
  SUV, Average ± SD: 0.97 ± 0.63
Stomach, 10 min post-injection, [^18F]2 alone
  SUV, Average ± SD: 0.53 ± 0.09
Stomach, 120 min post-injection, [^18F]2 + 20 µg of 2
  SUV, Average ± SD: 1.28 ± 1.08
Stomach, 120 min post-injection, [^18F]2 alone
  SUV, Average ± SD: 0.68 ± 0.41
Urine, 5 min post-injection, [^18F]2 + 20 µg of 2
  SUV, Average ± SD: 0.20 ± 0.29
Urine, 5 min post-injection, [^18F]2 alone
  SUV, Average ± SD: 0.10 ± 0.10
Urine, 10 min post-injection, [^18F]2 + 20 µg of 2
  SUV, Average ± SD: 0.85 ± 0.79
Urine, 10 min post-injection, [^18F]2 alone
  SUV, Average ± SD: 1.78 ± 1.21
Urine, 120 min post-injection, [^18F]2 + 20 µg of 2
  SUV, Average ± SD: 3.20 ± 2.32
Urine, 120 min post-injection, [^18F]2 alone
  SUV, Average ± SD: 20.55 ± 8.76
liver, 5 min post-injection, [^18F]2 + 20 µg of 2
  SUV, Average ± SD: 8.37 ± 0.36
liver, 5 min post-injection, [^18F]2 alone
  SUV, Average ± SD: 11.85 ± 0.33
liver, 10 min post-injection, [^18F]2 + 20 µg of 2
  SUV, Average ± SD: 7.85 ± 0.41
liver, 10 min post-injection, [^18F]2 alone
  SUV, Average ± SD: 14.43 ± 1.48
liver, 120 min post-injection, [^18F]2 + 20 µg of 2
  SUV, Average ± SD: 4.00 ± 0.22
liver, 120 min post-injection, [^18F]2 alone
  SUV, Average ± SD: 3.08 ± 1.44
